According to PubChem BioAssay (NCI):
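At the GI50, growth is halved. TGI: concentration producing complete growth inhibition.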

Key:
Test in all cases: NCI anticancer screen, dose series, 384-well format
A549 NSCLC = test system: A549 NSCLC
UACC-257 melanoma = test system: UACC-257 melanoma
HL-60(TB) leukemia = test system: HL-60(TB) leukemia
HS 578T breast = test system: HS 578T breast
KM12 colon = test system: KM12 colon
HCC-2998 colon = test system: HCC-2998 colon
OVCAR-3 ovarian = test system: OVCAR-3 ovarian
IGROV1 ovarian = test system: IGROV1 ovarian
SNB-75 CNS = test system: SNB-75 CNS
SF-539 CNS = test system: SF-539 CNS
M14 melanoma = test system: M14 melanoma
SK-MEL-5 melanoma = test system: SK-MEL-5 melanoma
NCI-H460 NSCLC = test system: NCI-H460 NSCLC
UO-31 renal = test system: UO-31 renal
MALME-3M melanoma = test system: MALME-3M melanoma
SK-OV-3 ovarian = test system: SK-OV-3 ovarian
SR leukemia = test system: SR leukemia
K-562 leukemia = test system: K-562 leukemia
HOP-62 NSCLC = test system: HOP-62 NSCLC
OVCAR-5 ovarian = test system: OVCAR-5 ovarian
OVCAR-8 ovarian = test system: OVCAR-8 ovarian
CCRF-CEM leukemia = test system: CCRF-CEM leukemia
DU-145 prostate = test system: DU-145 prostate
RPMI-8226 leukemia = test system: RPMI-8226 leukemia
NCI-H226 lung = test system: NCI-H226 lung
SK-MEL-28 melanoma = test system: SK-MEL-28 melanoma
EKVX NSCLC = test system: EKVX NSCLC
SW-620 colon = test system: SW-620 colon
SN12C renal = test system: SN12C renal
MDA-MB-231 breast = test system: MDA-MB-231 breast
MDA-MB-435 melanoma = test system: MDA-MB-435 melanoma
LOX IMVI melanoma = test system: LOX IMVI melanoma
NCI/ADR-RES ovarian = test system: NCI/ADR-RES ovarian
OVCAR-4 ovarian = test system: OVCAR-4 ovarian
MCF7 breast = test system: MCF7 breast
UACC-62 melanoma = test system: UACC-62 melanoma
SF-295 CNS = test system: SF-295 CNS
HCT-15 colon = test system: HCT-15 colon
RXF 393 renal = test system: RXF 393 renal
786-0 renal = test system: 786-0 renal
HT29 colon = test system: HT29 colon
BT-549 breast = test system: BT-549 breast
SNB-19 CNS = test system: SNB-19 CNS
TK-10 renal = test system: TK-10 renal
CAKI-1 renal = test system: CAKI-1 renal
NCI-H23 lung = test system: NCI-H23 lung
MDA-MB-468 breast = test system: MDA-MB-468 breast
SF-268 CNS = test system: SF-268 CNS
MOLT-4 leukemia = test system: MOLT-4 leukemia
T-47D breast = test system: T-47D breast
COLO 205 colon = test system: COLO 205 colon
NCI-H522 lung = test system: NCI-H522 lung
PC-3 prostate = test system: PC-3 prostate
A498 renal = test system: A498 renal
NCI-H322M lung = test system: NCI-H322M lung
HOP-92 NSCLC = test system: HOP-92 NSCLC
ACHN renal = test system: ACHN renal

CN1C(=O)C(C)(C)Oc2c(-c3cn(C)c(=O)c4[nH]ccc34)cc(S(C)(=O)=O)cc21
GI50 (A549 NSCLC): 389 nM | TGI (A549 NSCLC): 7.08 µM | GI50 (UACC-257 melanoma): 206 nM | TGI (UACC-257 melanoma): 1330 nM | GI50 (HL-60(TB) leukemia): 48.5 nM | TGI (HL-60(TB) leukemia): 184 nM | GI50 (HS 578T breast): 65.2 nM | TGI (HS 578T breast): 349 nM | GI50 (KM12 colon): 330 nM | TGI (KM12 colon): 1910 nM | GI50 (HCC-2998 colon): 150 nM | TGI (HCC-2998 colon): 468 nM | GI50 (OVCAR-3 ovarian): 232 nM | TGI (OVCAR-3 ovarian): 1180 nM | GI50 (IGROV1 ovarian): 329 nM | TGI (IGROV1 ovarian): 1390 nM | GI50 (SNB-75 CNS): 343 nM | TGI (SNB-75 CNS): 7.57 µM | GI50 (SF-539 CNS): 274 nM | TGI (SF-539 CNS): 1050 nM | GI50 (M14 melanoma): 364 nM | TGI (M14 melanoma): 16.3 µM | GI50 (SK-MEL-5 melanoma): 178 nM | TGI (SK-MEL-5 melanoma): 1140 nM | GI50 (NCI-H460 NSCLC): 1160 nM | TGI (NCI-H460 NSCLC): 10.4 µM | GI50 (UO-31 renal): 2560 nM | TGI (UO-31 renal): > 100 µM | GI50 (MALME-3M melanoma): 115 nM | TGI (MALME-3M melanoma): 731 nM | GI50 (SK-OV-3 ovarian): 237 nM | TGI (SK-OV-3 ovarian): 1560 nM | GI50 (SR leukemia): 72.8 nM | TGI (SR leukemia): 531 nM | GI50 (K-562 leukemia): 268 nM | TGI (K-562 leukemia): 5.65 µM | GI50 (HOP-62 NSCLC): 287 nM | TGI (HOP-62 NSCLC): 2270 nM | GI50 (OVCAR-5 ovarian): 271 nM | TGI (OVCAR-5 ovarian): 2240 nM | GI50 (OVCAR-8 ovarian): 235 nM | TGI (OVCAR-8 ovarian): 1190 nM | GI50 (CCRF-CEM leukemia): 174 nM | TGI (CCRF-CEM leukemia): 1390 nM | GI50 (DU-145 prostate): 1290 nM | TGI (DU-145 prostate): 22.9 µM | GI50 (RPMI-8226 leukemia): 23.4 nM | TGI (RPMI-8226 leukemia): 152 nM | GI50 (NCI-H226 lung): 223 nM | TGI (NCI-H226 lung): 1710 nM | GI50 (SK-MEL-28 melanoma): 347 nM | TGI (SK-MEL-28 melanoma): 4.21 µM | GI50 (EKVX NSCLC): 1510 nM | TGI (EKVX NSCLC): 11.1 µM | GI50 (SW-620 colon): 1280 nM | TGI (SW-620 colon): 5.61 µM | GI50 (SN12C renal): 669 nM | TGI (SN12C renal): 3.55 µM | GI50 (MDA-MB-231 breast): 168 nM | TGI (MDA-MB-231 breast): 2260 nM | GI50 (MDA-MB-435 melanoma): 868 nM | TGI (MDA-MB-435 melanoma): 12.7 µM | GI50 (LOX IMVI melanoma): 157 nM | TGI (LOX IMVI melanoma): 327 nM | GI50 (NCI/ADR-RES ovarian): 5.65 µM | TGI (NCI/ADR-RES ovarian): 45.9 µM | GI50 (OVCAR-4 ovarian): 114 nM | TGI (OVCAR-4 ovarian): 346 nM | GI50 (MCF7 breast): 84.7 nM | TGI (MCF7 breast): 949 nM | GI50 (UACC-62 melanoma): 68.7 nM | TGI (UACC-62 melanoma): 891 nM | GI50 (SF-295 CNS): 1050 nM | TGI (SF-295 CNS): 7.54 µM | GI50 (HCT-15 colon): 340 nM | TGI (HCT-15 colon): 2270 nM | GI50 (RXF 393 renal): 1730 nM | TGI (RXF 393 renal): 10.7 µM | GI50 ([…]-0 renal): 355 nM | TGI (786-0 renal): 7.36 µM | GI50 (HT29 colon): 196 nM | TGI (HT29 colon): 7.84 µM | GI50 (BT-549 breast): 164 nM | TGI (BT-549 breast): 785 nM | GI50 (SNB-19 CNS): 423 nM | TGI (SNB-19 CNS): 7.13 µM | GI50 (TK-10 renal): 279 nM | TGI (TK-10 renal): 1170 nM | GI50 (CAKI-1 renal): 229 nM | TGI (CAKI-1 renal): 2150 nM | GI50 (NCI-H23 lung): 257 nM | TGI (NCI-H23 lung): 1570 nM | GI50 (MDA-MB-468 breast): 114 nM | TGI (MDA-MB-468 breast): 439 nM | GI50 (SF-268 CNS): 728 nM | TGI (SF-268 CNS): 3.49 µM | GI50 (MOLT-4 leukemia): 220 nM | TGI (MOLT-4 leukemia): 1010 nM | GI50 (T-47D breast): 156 nM | TGI (T-47D breast): 865 nM | GI50 (COLO 205 colon): 228 nM | TGI (COLO 205 colon): 1390 nM | GI50 (NCI-H522 lung): 135 nM | TGI (NCI-H522 lung): 544 nM | GI50 (PC-3 prostate): 1040 nM | TGI (PC-3 prostate): 50.7 µM | GI50 (A498 renal): 381 nM | TGI (A498 renal): 11.5 µM | GI50 (NCI-H322M lung): 441 nM | TGI (NCI-H322M lung): 3.9 µM | GI50 (HOP-92 NSCLC): 149 nM | TGI (HOP-92 NSCLC): 1850 nM | GI50 (ACHN renal): 1480 nM | TGI (ACHN renal): 11 µM
